Test results as given in ChEMBL document CHEMBL1121775, “Synthesis and antimalarial effects of N2-aryl-N4-[(dialkylamino)alkyl]- and N4-aryl-N2-[(dialkylamino)alkyl]-2,4-quinazolinediamines” (J Med Chem, 1981).
Values joined by “and” are separate entries in the source; they are usually repeats but may differ in a detail not shown here. Equal entries are not always repeated.

Experiments:
Plasmodium berghei [1] = experiment: Antimalarial effect against trophozoite-induced Plasmodium berghei in mice (Mus musculus) after 20 mg/kg subcutaneous dose; type: functional
Mus musculus [2] = experiment: (§1) Number of toxic deaths at a dose of 160 mg/kg; type: toxicity, organism-based; parameters: dose 160 mg/kg; details: in vivo
Plasmodium berghei [3] = experiment: Antimalarial activity against trophozoite-induced Plasmodium berghei in mice (Mus musculus) at 160 mg/kg subcutaneous dose; type: functional
Mus musculus [4] = experiment: Number of toxic deaths at a dose of 640 mg/kg; type: toxicity, organism-based; parameters: dose 640 mg/kg; details: in vivo
Mus musculus [5] = experiment: Number of toxic deaths at a dose of 320 mg/kg; type: toxicity, organism-based; parameters: dose 320 mg/kg; details: in vivo
[6] = The ratio of SD90 of the quinine hydrochloride, to the SD90 of the test substance for the Dose of 45 mg/kg; type: functional
Plasmodium berghei [7] = experiment: Antimalarial effect against trophozoite-induced Plasmodium berghei in mice (Mus musculus) after 40 mg/kg subcutaneous dose; type: functional
Mus musculus [8] = experiment: Antimalarial effect against trophozoite-induced Plasmodium berghei in mice (Mus musculus) at dosage of 320 mg/kg after subcutaneous administration;; type: functional
Plasmodium berghei [9] = experiment: Antimalarial effect against trophozoite-induced Plasmodium berghei in mice (Mus musculus) at 80 mg/kg subcutaneous dose; type: functional
Plasmodium berghei [10] = experiment: Antimalarial activity against trophozoite-induced Plasmodium berghei in mice (Mus musculus); type: functional
[11] = The ratio of SD90 of the quinine hydrochloride, to the SD90 of the test substance for the Dose of >33 mg/kg; type: functional
Plasmodium berghei [12] = experiment: Antimalarial effect against trophozoite-induced Plasmodium berghei in mice (Mus musculus) at 320 mg/kg subcutaneous dose; type: functional
Plasmodium berghei [13] = experiment: (§2) Antimalarial effect against trophozoite-induced Plasmodium berghei in mice (Mus musculus) at 640 mg/kg subcutaneous dose; type: functional; details: 640 mg/kg
Plasmodium berghei [14] = experiment: Antimalarial effect against trophozoite-induced Plasmodium berghei in mice (Mus musculus) at 160 mg/kg subcutaneous dose; type: functional
[15] = The ratio of SD90 of the quinine hydrochloride, to the SD90 of the test substance for the Dose of 155 mg/kg; type: functional
Mus musculus [16] = experiment: Number of mice cured at a subcutaneous dose of 640 mg/kg.; type: functional
Mus musculus [17] = experiment: Antimalarial effect against trophozoite induced Plasmodium berghei in mice (Mus musculus) at dosage of 160 mg/kg after subcutaneous administration; No. of mice (Mus musculus) surviving after 60 days 2; type: functional
Mus musculus [18] = experiment: Antimalarial effect against trophozoite-induced Plasmodium berghei in mice (Mus musculus) at dosage of 80 mg/kg after subcutaneous administration; type: functional
Plasmodium berghei [19] = experiment: as §2; type: functional
[20] = The ratio of SD90 of the quinine hydrochloride, to the SD90 of the test substance for the Dose of 30 mg/kg; type: functional
Mus musculus [21] = experiment: Number of mice cured at a dose of 640 mg/kg sc; type: functional; details: route subcutaneous
Mus musculus [22] = experiment: Number of mice cured at a subcutaneous dose of 320 mg/kg.; type: functional
Mus musculus [23] = experiment: Number of mice cured at a subcutaneous dose of 160 mg/kg.; type: functional
[24] = The ratio of SD90 of the quinine hydrochloride, to the SD90 of the test substance for the Dose of 20 mg/kg; type: functional
[25] = The ratio of SD90 of the quinine hydrochloride, to the SD90 of the test substance for the Dose of 38 mg/kg; type: functional
[26] = The ratio of SD90 of the quinine hydrochloride, to the SD90 of the test substance for the Dose of […] mg/kg; type: functional
Mus musculus [27] = experiment: Number of mice cured at a dose of 320 mg/kg sc; type: functional; details: route subcutaneous
Mus musculus [28] = experiment: as §1; type: functional
[29] = The ratio of SD90 of the quinine hydrochloride, to the SD90 of the test substance for the Dose of 69 mg/kg; type: functional
[30] = The ratio of SD90 of the quinine hydrochloride, to the SD90 of the test substance for the Dose of 37 mg/kg/day; type: functional

| Compound | MST (Plasmodium berghei [1]) | MST (Plasmodium berghei [3]) | No. of toxic deaths (Mus musculus [4]) | No. of toxic deaths (Mus musculus [5]) | MST (Plasmodium berghei [9]) | SD90 (Plasmodium berghei [10]) | MST (Plasmodium berghei [12]) | MST (Plasmodium berghei [14]; 160 mg/kg) | MST (Plasmodium berghei [7]; 40 mg/kg) | No. of cured (Mus musculus [16]) | also measured |
| --- | --- | --- | --- | --- | --- | --- | --- | --- | --- | --- | --- |
| CCOc1ccc(Nc2nc(NCCN(CC)CC)c3cc(Cl)ccc3n2)cc1CN(CC)CC | 0.2 days | 4.3 days | 5 | 4 | 3.2 days | 45 mg/kg/day |  |  |  |  | No. of toxic deaths (Mus musculus [2]): 1; Ratio [6]: 1.6; MST (Plasmodium berghei [7]): 0.8 days; MST (Mus musculus [8]): 5.8 days |
| CCOc1ccc(Nc2nc(NCCN(CC)CC)c3cc(Cl)ccc3n2)cc1CN1CCCC1 | 0.2 days |  | 3 | 2 | 1 days | >33 mg/kg/day | 7.8 days | 4.8 days and 4.6 days | 0.6 days and 0.2 days |  | Ratio [11]: <2.3; MST (Plasmodium berghei [13]): 13.3 days and 12.8 days |
| CCN(CC)Cc1cc(Nc2nc(NC3CCC(N(C)C)CC3)c3ccccc3n2)ccc1OC (stereo not given) | 7.5 days | 13 days | 5 | 5 |  | 155 mg/kg/day |  |  | 7.7 days and 7.2 days | 3 | Ratio [15]: 0.5; MST (Mus musculus [17]): 16.3 days; MST (Mus musculus [18]): 13 days |
| CCN(CC)CCNc1nc(Nc2ccc(Cl)c(Cl)c2)nc2ccc([N+](=O)[O-])cc12 |  |  |  |  |  | 30 mg/kg/day |  | 7 days and 7.3 days | 0.4 days and 0.7 days |  | MST (Plasmodium berghei [12]; 320 mg/kg): 10.4 days and 10.9 days; MST (Plasmodium berghei [1]; 20 mg/kg): 0.2 days and 0.3 days; MST (Plasmodium berghei [19]): 20.6 days; Ratio [20]: 2.5; MST (Plasmodium berghei [9]; 80 mg/kg): 1.2 days and 1.5 days |
| CN1CCCC1CCNc1nc(Nc2cc(Cl)cc(Cl)c2)nc2ccc(Cl)cc12 (stereo not given) | 0.6 days |  |  |  | 5 days | 20 mg/kg/day | 21.1 days |  | 3.6 days and 4 days |  | No. of survivals (Mus musculus [21]): 5; No. of survivals (Mus musculus [22]): 1; No. of survivals (Mus musculus [23]): 1; MST (Plasmodium berghei [3]; 160 mg/kg): 11.1 days and 10.3 days; Ratio [24]: 3.8 |
| CCN1CCCC(Nc2nc(Nc3ccc(Cl)cc3)nc3ccccc23)C1 (stereo not given) | 0.2 days |  |  |  | 3 days | 38 mg/kg/day | 20 days | 10.6 days and 11.4 days | 0.4 days and 0.6 days | 3 | MST (Plasmodium berghei [13]): 28.3 days and 28.8 days; Ratio [25]: 2 |
| CCN(CC)C1CCC(Nc2nc(Nc3cc(Br)cc(Br)c3)nc3ccccc23)CC1 (stereo not given) | 0.3 days |  |  |  | 4.3 days | 3.3 mg/kg/day | 26.2 days | 8.7 days and 9.1 days | 1.1 days and 0.7 days | 5 | Ratio [26]: 2.3; No. of cured (Mus musculus [27]): 2 |
| CCN(CC)CCNc1nc(NCc2ccc(Cl)c(Cl)c2)nc2ccccc12 |  | 0.9 days | 5 |  |  |  |  |  |  |  | MST (Plasmodium berghei [7]): 0.7 days; No. of toxic deaths (Mus musculus [28]): 1 |
| CCN(CC)CCNc1nc(Nc2ccc(Cl)c(Cl)c2)nc2ccc(NCc3ccc(Cl)c(Cl)c3)cc12 | 0.2 days |  |  |  | 0.4 days | 69 mg/kg/day | 5.6 days |  | 0.2 days and 0.4 days |  | MST (Plasmodium berghei [14]): 3.8 days; Ratio [29]: 1.1 |
| FC(F)(F)c1ccc(Nc2nc(NCCN3CCCC3)c3ccccc3n2)cc1 | 0.2 days |  |  |  | 2.4 days | 37 mg/kg/day | 10.2 days | 4.8 days and 3.4 days | 0.4 days and 0.8 days |  | MST (Plasmodium berghei [19]; 640 mg/kg): 16.2 days and 13.2 days; Ratio [30]: 2 |
